From patent US12357601B2, “Composition for inhibiting growth of bacterium having menaquinone synthesis pathway through futalosine or futalosine derivative” (NOSTER INC., priority 2017, dated 2025) come the findings set out here.

≈ marks a conversion by molar mass, not a printed value.

Assay [1] has as its system Campylobacter jejuni ATCC33560 strain. In words: Proliferation inhibitory effect (in vitro) on Campylobacter jejuni, absorbance and colony count. The settings on record: 100, 200, 400 μM, 24 hr; concentration dependent; strong compared to linoleic acid. It counts as cell-based.
Assay [2] deals with Campylobacter coli ATCC33559 strain. Briefly: Proliferation inhibitory effect (in vitro) on Campylobacter coli, absorbance and colony count. Conditions: 100, 200, 400 μM, 24 hr; concentration dependent; strong compared to linoleic acid. Type of assay: cell-based.
Assay [3] relates to Helicobacter pylori SS1 strain or TN2GF4 strain. Briefly: Proliferation inhibitory effect (in vivo) of HYA on Helicobacter pylori, number of bacteria in gastric mucosa. On the set-up: species or system C57BL/6 female mouse. Conditions: 200 μM in water from 1 week before infection; 2 weeks from final infection. The method, then:
A 5-week-old C57BL/6 female mouse was orally infected 3 times with Helicobacter pylori SS1 strain or TN2GF4 strain (1-5×10^8 CFU) every other day and dissected at 2 weeks from the final infection day, and the number of bacteria in the gastric mucosa was counted. Water added with HYA or linoleic acid (200 μM) was given to the mice from 1 week before infection (FIG. 4-1 A: SS1 strain, FIG. 4-2 B: TN2GF4 strain). A 5-week-old C57BL/6 female mouse was orally infected only once with a stomach suspension of Helicobacter suis TKY strain or SNTW101 strain-infected mouse and dissected 2 weeks later, and the number of bacteria in the gastric mucosa was counted. Water added with HYA (200 μM) was given to the mouse from one week before the infection (FIG. 4-3 C). […] The measurement of the number of Helicobacter suis bacteria in the stomach of the infected mouse was performed as follows.

Assay [4] shares this test system. Briefly: Inhibitory effect (in vivo) of fatty acid, number of bacteria in gastric mucosa of infected mice. On the set-up: species or system C57BL/6 female mouse. As for the experimental part:
A 5-week-old C57BL/6 female mouse was orally infected 3 times with Helicobacter pylori SS1 strain or TN2GF4 strain (1-5×10^8 CFU) every other day and dissected at 2 weeks from the final infection day, and the number of bacteria in the gastric mucosa was counted. The measurement and the number of bacteria in the gastric mucosa was performed as follows. First, the greater curvature of the stomach of the mouse was incised with scissors for ophthalmology, and the contents were washed away with phosphate buffered saline (pH 7.4, PBS). Next, the mucous membrane was scraped with a slide glass, 1 mL of PBS was added, the mixture was sandwiched between ground glass parts of two glass slides and evenly crushed to prepare a gastric mucosa suspension. The culture medium was applied on a Helicobacter agar plate, cultured for 3 days and the resulting colonies were counted. Water added with fatty acid (200 μM) (HYA, HYB, KetoA, KetoC, linoleic acid, oleic acid, DHA, EPA) was given to the mice from 1 week before infection. The control was free of fatty acid addition (FIG. 3-1 A: infected with SS1 strain, FIG. 3-2 B: infected with TN2GF4 strain).

For assay [5], the system named is Helicobacter pylori SS1 strain, TN2GF4 strain, TK1029 strain, RC-1 strain. Briefly: Proliferation inhibitory effect (in vitro) of low concentration fatty acid, shaking culture 24 hr, colony count. Type of assay: cell-based. Conditions: fatty acid 20 μM, 24 hr; SS1, TN2GF4, TK1029, RC-1 strains; compared with linoleic acid. The method, then:
Helicobacter pylori SS1 strain, TN2GF4 strain, TK1029 strain, RC-1 strain were each inoculated to a 6-well plate containing 2 mL of a liquid medium (BHI added with 5% FCS), and fatty acid (20 μM) and menaquinone (MK-4) 100 μg/mL were added. After shaking culture for 24 hr at temperature 37° C., microaerobic conditions (5% 02, 10% CO2, 85% N2), the culture medium was applied on a Helicobacter agar plate, cultured for 3 days and the resulting colonies were counted (FIG. 2-1 A: SS1 strain, FIG. 2-2 B: TN2GF4 strain, FIG. 2-3 C: TK1029 strain, FIG. 2-4 D: RC-1 strain. Item 1: control (menaquinone no addition), Item 2: control (menaquinone 100 μg/mL addition), Item 3: HYA 20 μM (menaquinone no addition), Item 4: HYA 20 μM (menaquinone 100 μg/mL addition), Item 5: linoleic acid 20 μM (menaquinone no addition), Item 6: linoleic acid 20 μM (menaquinone 100 μg/mL addition). *, P<0.0001 vs. Control (ordinary one-way ANOVA)).

Assay [6] relates to Helicobacter pylori TK1029 strain. In words: Proliferation inhibitory effect (in vitro) by ED50 measurement, viable count. It counts as cell-based. As for the experimental part:
Helicobacter pylori TK1029 strain (clinical isolate) was cultured in Brucella broth containing 10% FCS and 1×10^6 CFU of bacteria were respectively added to 3 mL of Brain-Heart Infusion Broth (BHI) media (previously added with free fatty acid (stearic acid, oleic acid, linoleic acid, ricinoleic acid, HYA) at 0, 0.5, 5, 50, 500 μg/mL) containing 2% FCS in a 6-well plate. Shaking culture was performed under conditions of temperature 37° C., humidity 100%, microaerobic (5% 02, 10% CO2, 85% N2), the culture medium (0.1 mL) from each well was applied to NISSUI plate, Helicobacter agar medium 15 hr and 25 hr later, and the number of colonies formed after microaerobic culture for 3 days was counted.

The test system of assay [7] is Helicobacter suis TKY strain. In words: Gastric MALT lymphoma model: number of Helicobacter suis bacteria in the stomach 6 months after infection. It counts as in vivo, C57BL/6 female mouse. Conditions: 200 μM in water. As for the experimental part: Helicobacter suis is suspected to be the cause of the onset of gastric MALT lymphoma. A 5-week-old C57BL/6 female mouse was orally infected only once with a stomach suspension of Helicobacter suis TKY strain-infected mouse and dissected 6 months after the infection, and the number of bacteria in the gastric mucosa was counted according to the method described in Example 5. Water added with HYA (200 μM) was given to the mouse from one week before the infection.
The measurement of the number of Helicobacter suis bacteria in the stomach of the infected mouse was performed in the same manner as in Example 5. The relative value of the number of bacteria in gastric mucosa when that with HYA non-administration is 1 is shown (FIG. 5-1 A, Item 1: HYA non-administration group, Item 2: HYA administration group).

Turning to `CCCCC/C=C\CC(O)CCCCCCCCC(=O)O` (stereo not drawn) [HYA, 10-hydroxy-cis-12-octadecenoic acid], the “proliferation of Campylobacter jejuni ATCC33560 strain” value in assay [1] is reported as “inhibited proliferation”. Also, in assay [2], the “proliferation of Campylobacter coli ATCC33559 strain” value was “inhibited proliferation”. Also, the “proliferation of Helicobacter pylori SS1 strain, TN2GF4 strain (number of bacteria in gastric mucosa)” value in assay [3] is on record as “inhibited proliferation”. The “number of Helicobacter pylori in the gastric mucosa, compared to the control” value in assay [4] (200 μM in water from 1 week before infection, 2 weeks from final infection, both SS1 and TN2GF4 strain) is “significantly suppressed”. In assay [4] (200 μM in water, SS1 and TN2GF4 strain infected mice), the “suppressive action compared to HYB, KetoA, KetoC, linoleic acid, oleic acid, DHA and EPA” value was “strong suppressive action”. The “proliferation of Helicobacter pylori (colony count)” value in assay [5] was “suppressed proliferation”. Further, the “ED50 value times lower than that of ricinoleic acid” value in assay [6] (15 hr after culturing) is “about 10 times”. For the same molecule, the “ED50 value, 15 hr later” value in assay [6] (15 hr shaking culture, BHI 2% FCS, viable count) came out at 0.5 µg/mL (≈ 1.68 µM). Further, the “ED50 values compared with the other fatty acids” value in assay [6] (25 hr after culturing) is on record as “remarkably lower than or the same level as”. In assay [6] (25 hr shaking culture, BHI 2% FCS, viable count), the “ED50 value, 25 hr later” value came out at 0.5 µg/mL (≈ 1.68 µM). The “number of Helicobacter suis bacteria in gastric mucosa, compared to the non-administration group” value in assay [7] is on record as “significantly suppressed”.
